The test system of test [1] is pMEK and pERK in HCT-116 (wild-type BRAF, mutant KRAS) cells. Nature of the test: Western blot, paradoxical MAPK activation in HCT-116 cells. The class given is cell-based, human. Conditions: 100 or 300 nM dabrafenib, co-treatment with 50 nM or 5 nM trametinib, 1 h. As for the experimental part: Cells were lysed in 25 mM Tris-HCl pH 7.5, 2 mM EDTA, 2 mM EGTA, 1% Triton X-100, 0.1% SDS, 50 mM sodium-β-glycerophosphate, 2 mM Na3VO4, 12.5 mM sodium pyrophosphate, 2× Complete EDTA-free mini protease inhibitor tablets (Roche), 2× phosphatase inhibitor cocktails I and II (Sigma-Aldrich). Protein concentrations were determined by Bio-Rad DC™ or dye-based protein assays and lysates were resolved by SDS-PAGE (Invitrogen NuPAGE®) and transferred to PVDF membranes. Membranes were blocked with Odyssey® (LI-COR Biosciences) blocking buffer and incubated with primary antibodies overnight at 4°C. Blots were washed with PBS containing 0.1% Tween-20, incubated with secondary antibodies, and washed again prior to signal detection on a LI-COR Odyssey® reader.
Lysates were immunoblotted for total ERK (tERK) and dual-phosphorylated ERK (ppERK) (B).
A general note: In western blotting, separated proteins are transferred to a membrane and probed.

The next test has as its system HCT-116. More on the design: method as in PMID 21245089. Conditions: HCT-116 cells; read-out: gIC50; cited from earlier work.

As for `CC(=O)Nc1cccc(-n2c(=O)n(C3CC3)c(=O)c3c(Nc4ccc(I)cc4F)n(C)c(=O)c(C)c32)c1` [trametinib, reference compound], the “effect on dabrafenib-induced pERK upregulation” value in test [1] is recorded as “abolished”. Also, the IC50 in the test on HCT-116 is 21 nM.
